These results are taken from US20240059658A1 (Emory University, priority 2019, published 2024).

Read-outs that look alike come from different tables or passages of the source.

Data set [1] has as its target T1, MDM2 (Homo sapiens, UniProt Q00987).
T1 construct: ubiquitination of endogenous MDM2 in EU-1 cells; endogenous in cells; host or cells: EU-1 (ALL) cells
The experiment in a line: MDM2 reduction / expression (Western blot). Type of data set: cell-based. Summed up: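 EU-1 cell lysates (NP-40 buffer with protease/phosphatase inhibitors) resolved by SDS-PAGE directly or after overnight 4° C immunoprecipitation with Protein G/A-agarose. Blots probed with specific antibodies; chemiluminescent detection.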

For the next data set, the system named is p53. The experiment in a line: p53 induction / expression (Western blot). The class given is cell-based. Particulars: for p53 induction: words or +/− grades, key not given. As to the method:
(§1) Cells were lysed in a buffer composed of 50 mM Tris, pH 7.6, 150 mM NaCl, 1% Nonidet P-40, 10 mM sodium phosphate, 10 mM NaF, 1 mM sodium orthovanadate, 2 mM phenylmethylsulfonyl fluoride (PMSF), […], 10 μg/mL leupeptin and 10 μg/mL pepstatin. After centrifugation, the clarified cell lysate was separated from the pellet of cell debris, and then incubated with 15 μL Protein G/Protein A-agarose and 1 μg of antibodies, overnight at 4° C. For the Western blot, the resulting cell lysates or immunoprecipitates were resolved by SDS-PAGE. They were then transferred to a nitrocellulose filter and probed with the specific antibodies as listed in the supplemental Materials section. Finally, proteins were visualized with a chemiluminescent detection system.
Background: A western blot detects proteins with antibodies after separation by electrophoresis.

The subject of a further data set is 855 line. As to the kind of experiment: WST cytotoxicity assay, 855 line. Type of data set: cell-based. Particulars: read-out: Cancer cell cytotoxicity IC50. How it is done:
(§2) The cytotoxic effect of MX 69 and MX69 analogs on cancer cells was determined using the water-soluble tetrazolium salt (WST) assay. Briefly, cells cultured in 96-well microtiter plates were treated with different concentrations of AQ-101 for a 20-h period. WST (25 μg/well) was then added and incubation continued for an additional 4 h, after which optical density (OD) was read with a microplate reader (test wavelength of 450 nm; reference wavelength of 620 nm).

The test system of another data set is 93-10 line. As to the kind of experiment: WST cytotoxicity assay, 93-10 line. The class given is cell-based. Particulars: 93-10 line no MDM2 and p53; read-out: Cancer cell cytotoxicity IC50. As to the method:
as §2

The next data set deals with EU-1. As to the kind of experiment: WST cytotoxicity assay, cancer cell EU-1. The following applies: EU-1. Type of data set: cell-based, human. The gist of the method: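 Pediatric ALL and NB lines grown in RPMI 1640 with 10% FBS at 37 °C, 5% CO2. Cells were exposed to a range of compound concentrations for 20 h, then WST (25 μg/well) was added for a further 4 h. OD read at 450 nm against a 620 nm reference.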

A further data set has as its system XIAP. The experiment in a line: XIAP inhibition / expression (Western blot). Type of data set: cell-based. The following applies: EU-1 cells; dose-dependent. As to the method:
as §1

Another data set relates to XIAP mRNA. The experiment in a line: Polysome analysis of XIAP mRNA in EU-1 cells. Type of data set: cell-based. The following applies: 1 μM for 4 h. As to the method: Cells were incubated with 100 μg/mL cycloheximide (CHX) for 15 min to arrest polyribosome migration, and then lysed (in order to isolate cytoplasmic extracts) in a buffer containing 20 mM Tris-HCl at pH 8.0, 100 mM NaCl, 5 mM MgCl2, 0.5% Triton X-100, 500 U/mL RNAsin, and a cocktail of protease inhibitors. Fractionation was performed on a 15-45% (w/v) sucrose gradient at 39,000 rpm for 1 h (SW41Ti rotor). Fractions were collected by upward replacement in a fractionator (Isco, Lincoln, NE). The RNA from each fraction was subjected to quantitative PCR.

Data set [2] concerns ALL cell lines EU-1 and EU-3. As to the kind of experiment: WST cytotoxicity assay, ALL cell lines. The following applies: Homo sapiens, 48 h, read-out: IC50, cytotoxicity against ALL cell lines. The class given is cell-based. As to the method:
(§3) This study used two ALL cell lines (EU-1 and EU-3) and three NB cell lines (NB-1643, SHEP1 and LA1-55N). All 5 cancer cell lines were established from pediatric ALL or NB patients and were well-characterized for their expression of MDM2 and p53-status, as reported previously. All cell lines were grown in standard culture medium (RPMI 1640 containing 10% FBS, 2 mmol/L L-glutamine, 50 U penicillin and 50 μg/mL streptomycin) at 37° C. in a humidified atmosphere containing 5% CO2.
(§4) The cytotoxic effect of MX 69 and MX69 analogs on cancer cells was determined using the water-soluble tetrazolium salt (WST) assay. […] WST (25 μg/well) was then added and incubation continued for an additional 4 h, after which optical density (OD) was read with a microplate reader (test wavelength of 450 nm; reference wavelength of 620 nm).

Another data set has as its system 91-06 line. As to the kind of experiment: WST cytotoxicity assay, 91-06 line. The following applies: no MDM2 and p53, read-out: Cancer cell cytotoxicity IC50. The class given is cell-based. As to the method:
as §2

For the next data set, the target named is MDM2 RING protein (Homo sapiens, UniProt Q00987). The experiment in a line: Compound-protein binding (ITC) to MDM2 RING protein. The following applies: MDM2 RING domain. How it is done:
Isothermal titration calorimetry (ITC) assay was performed using the auto-iTC200 instrument (MicroCal, GE). MDM2 protein was loaded into a 96 DeepWell PP plate, and then compound was titrated stepwise into the protein sample cell using a syringe, for a total of 16 injections (except for the first injection, which was 0.4 μl). The equilibrium time between two adjacent injections was 210 s. The binding stoichiometry (n), binding constant (Kd), and thermodynamic parameters (ΔH and ΔS) were determined by fitting the titration curve to a one-site binding mode, using the Origin software provided by the manufacturer.

The subject of another data set is LA1-55N. The experiment in a line: WST cytotoxicity assay, LA1-55N. The class given is cell-based, human. Particulars: line does not express normal p53. How it is done: as §3, §2
The subject of a further data set is 697 cell line. As to the kind of experiment: WST cytotoxicity assay, 697 cell line. Type of data set: cell-based. Particulars: read-out: Cancer cell cytotoxicity IC50. As to the method: as §2
The subject of a further data set is 855 luc. The experiment in a line: WST cytotoxicity assay, 855 luc. The class given is cell-based. The following applies: read-out: Cancer cell cytotoxicity IC50. As to the method:
as §2

For another data set, the system named is NB-1643. As to the kind of experiment: WST cytotoxicity assay, NB-1643. Type of data set: cell-based. Particulars: Homo sapiens; NB-1643 line; read-out: Cancer cell cytotoxicity IC50. As to the method: as §3, §2
A further data set deals with caspases-3, -9 and PARP. The experiment in a line: Western blot, cleavage of caspases-3, -9 and PARP in EU-1 cells. Type of data set: cell-based. Particulars: 69L52 1 μM vs MX69 5 μM. As to the method:
as §1

Data set [3] has as its system NB cell lines NB-1643, SHEP1 and LA1-55N. As to the kind of experiment: WST cytotoxicity assay, NB cell lines. The class given is cell-based. Particulars: Homo sapiens, NB-1643, SHEP1, LA1-55N, 48 h, read-out: IC50, cytotoxicity against NB cell lines. How it is done: as §3, §4
The subject of the next data set is p21 and PUMA. As to the kind of experiment: Western blot for p53 targets p21 and PUMA in EU-1 cells. Type of data set: cell-based. As to the method: as §1
For data set [4], the target named is T1, MDM2. The experiment in a line: IP-Western blot, ubiquitination of endogenous MDM2 in EU-1 cells. The class given is cell-based. Particulars: 1 μM. As to the method: as §1
Another data set concerns DAOY line. The experiment in a line: WST cytotoxicity assay, DAOY line. Type of data set: cell-based. Particulars: Homo sapiens; DAOY line with MDM2/no p53; read-out: Cancer cell cytotoxicity IC50. As to the method: as §2
The next data set has as its system NB cell lines. The experiment in a line: Colony formation assay, NB cell lines. The class given is cell-based, human. How it is done: A clonogenic assay was used to determine the effect of MX69 analogs on in vitro growth of NB and normal human hematopoietic cells, respectively. For NB1 colony formation assay, cells were harvested with treatment by trypsinization, producing a single-cell suspension, and then 200 cells were seeded into a 6-well plate and cultured for approximately 2 weeks. Colonies were stained with a mixture of 6.0% glutaraldehyde and 0.5% crystal violet for 30 min. Then carefully removed the staining mixture, rinsed with tap water and counted the colonies.

A further data set deals with MYCN. The experiment in a line: MYCN inhibition. The class given is cell-based. Particulars: MDM2 reduction.

T1 sequence (Q00987 whole entry): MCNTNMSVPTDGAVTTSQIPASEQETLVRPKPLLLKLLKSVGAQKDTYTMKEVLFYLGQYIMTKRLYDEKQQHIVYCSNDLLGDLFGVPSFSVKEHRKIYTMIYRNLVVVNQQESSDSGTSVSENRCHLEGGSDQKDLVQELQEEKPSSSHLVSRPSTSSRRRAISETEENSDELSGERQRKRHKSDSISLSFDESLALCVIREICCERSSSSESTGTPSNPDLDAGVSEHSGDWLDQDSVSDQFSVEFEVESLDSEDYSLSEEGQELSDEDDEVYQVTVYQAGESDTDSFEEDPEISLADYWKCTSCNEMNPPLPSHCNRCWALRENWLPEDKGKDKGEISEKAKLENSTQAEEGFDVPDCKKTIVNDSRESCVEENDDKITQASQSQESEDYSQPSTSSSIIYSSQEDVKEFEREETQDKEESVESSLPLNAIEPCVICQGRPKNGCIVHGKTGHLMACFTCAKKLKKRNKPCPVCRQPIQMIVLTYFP
Chain of MDM2 RING protein (Q00987 438-479 limits assumed): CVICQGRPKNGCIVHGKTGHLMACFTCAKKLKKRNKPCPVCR

With `Cc1ccc(NS(=O)(=O)c2ccc3c(c2)C2OCC[C@H]2C(c2ccc(C(=O)C(C)C)cc2)N3)cc1C` (stereo partly shown) [Compound 69L52, N-(3,4-dimethylphenyl)-4-(4-isobutyrylphenyl)-2,3,3a,4,5,9b-hexahydrofuran[3,2-c]quinolone-8-sulfonamide], the “Time after treatment at which MDM2 and XIAP downregulation occurred” value on MDM2 [1] (EU-1 cells) was 2 to 4 h. In addition, at MDM2 [1] (EU-1 cells, 1 μM for 8 h, then 10 μM MG132 4 h), the “MDM2 downregulation in presence of MG132” value is listed as “blocked by MG132”. In addition, the MDM2 expression result at MDM2 [1] (EU-1 cells, dose-dependent) is reported as “remarkable downregulation”. Also, the MDM2 reduction result at MDM2 [1] (words or +/− grades, key not given) was “inhibition”. Also, in the data set with p53 (EU-1 cells, accompanying MDM2 downregulation), the p53 expression entry was “increased expression”. Also, the p53 induction entry in the data set with p53 is reported as “induction”. The IC50 is 740 nM in the data set on 855 line; 5.93 µM with 93-10 line; 1100 to 1400 nM with EU-1 (no other cell line named in the cell, read-out: Cancer cell (EU-1) cytotoxicity IC50); 460 nM in the data set with EU-1 (Homo sapiens, printed in the Mouse MTD column, control run of the cytotoxicity test, read-out: Value of the compound used as (positive) control alongside the row's compound); 300 to 400 nM in data set [2]; 3.62 µM in the data set with 91-06 line. Further, the IC50 in the data set on 697 cell line was 450 nM; in the data set on 855 luc it was 500 nM; in the data set on NB-1643, 700 nM; in data set [3] it was 500 to 1200 nM; in the data set on DAOY line, 2170 nM. The XIAP expression result in the data set with XIAP is reported as “remarkable downregulation”. The “Polyribosome association of XIAP mRNA” value in the data set with XIAP mRNA is reported as “downregulation in polyribosome association”. Also, at MDM2 RING protein, the “MDM2 binding affinity as compared with MX69” value is given as “Increased MDM2 Binding Affinity”. In addition, in the data set with LA1-55N, the “Cytotoxicity to LA1-55N compared with other cell lines” value is listed as “much less cytotoxicity”. Moreover, the “Cleavage of caspases-3, -9 and PARP compared with MX69” value in the data set with caspases-3, -9 and PARP is recorded as “stronger cleavage”. Further, the “p53 downstream targets p21 and PUMA” value with p21 and PUMA is “activation”. Moreover, at MDM2 [4], the “Ubiquitination of endogenous MDM2” value was “induced ubiquitination of endogenous MDM2”. Moreover, in the data set with NB cell lines (NB cell lines), the “Colony number and size as compared with controls” value is recorded as “significant reduction”. Besides, the “Cell growth in colony formation assay” value with NB cell lines (all 3 NB cell lines, two weeks) is recorded as “potently inhibited cell growth”.
Regarding `Cc1ccc(NS(=O)(=O)c2ccc3c(c2)C2NCC[C@H]2C(C2CCCCC2)N3)cc1C` (stereo partly shown) [Compound 69L61], the p53 induction entry with p53 was “No p53”. Further, the IC50 in the data set with 855 line was found to be 2430 nM; with 697 cell line, 3600 nM; in the data set with NB-1643 it was 1600 nM. Moreover, the MYCN inhibition entry in the data set on MYCN is reported as “inhibition”.
